Source: patent publication US11884710B2, “Peptide compounds and methods of use in wound healing” (priority 2013, dated 2024)
Square brackets hold non-standard residues; d marks the D form. Peptide text beside a SMILES is read from it. PEG2 = NCCOCCOCCC(=O)O

What was measured:
Escherichia coli = experiment: In vitro bactericidal activity against Escherichia coli; type: cell-based; conditions: E. coli; inoculum 1×10^6 CFU/ml; 60 to 180 minute incubation
Description: (§1) In vitro bactericidal activity: The three peptide compounds BCC01-5RMP (SEQ ID NO:23), BCC002-5RMP (SEQ ID NO:21), and BCC003-5RMP (SEQ ID NO:22) were assayed for in vitro bactericidal activity against Pseudomonas aeruginosa, Escherichia coli, Salmonella typhimurium, and Acinetobacter baumannii. The starting inoculum for all experiments was 1×10^6 colony forming units (CFU)/ml. The CFU remaining at the end of 60 to 180 minute incubation was determined, and the data plotted as a log reduction in CFU/ml.

Salmonella typhimurium = experiment: In vitro bactericidal activity against Salmonella typhimurium; type: cell-based; conditions: inoculum 1×10^6 CFU/ml, 60 to 180 minute incubation
Description: as §1

Acinetobacter baumannii = experiment: In vitro bactericidal activity against Acinetobacter baumannii; type: cell-based; conditions: inoculum 1×10^6 CFU/ml, 60 to 180 minute incubation
Description: as §1

P. aeruginosa ATCC 27853 = type: cell-based, Pseudomonas aeruginosa; conditions: Pseudomonas; inoculum 1×10^6 CFU/ml; 60 to 180 minute incubation
Description: as §1
Table 4 further compares the activity of several other compounds, including the “5R” versions of BCC01, i.e., SEQ ID NO:20 (which comprises SEQ ID NO: 7 with five additional arginines), the “5R” version of BCC002 (i.e., SEQ ID NO:18, which comprises SEQ ID NO: 1 with five additional arginines), and the 5RMP versions of BCC01 (SEQ ID NO: 23) and BCC002 (SEQ ID NO: 21). The data generally indicate the superiority of BCC003-5RMP (SEQ ID NO:22) and BCC002-5RMP (SEQ ID NO: 21) and the superiority of the 5R or 5RMP versions of the peptide over the “AEEP only” peptide against P. aeruginosa.

Pseudomonas LPS = experiment: LPS binding, Limulus Amebocyte Lysate (LAL) assay; conditions: LAL method
Description: (§2) The well-characterized response of RAW264.7 macrophage cells was used to produce tumor necrosis-factor-alpha (TNF-α) in response to LPS to determine whether the peptides could dampen the release of this cytokine. […] Importantly, pre-treatment (3 hours prior to LPS addition) as well as post-treatment of the RAW264.7 cells (3 hours post LPS addition) with peptide dampened the cytokine release. […] The finding that the novel peptides bind and neutralize the effect of Pseudomonas LPS is of critical importance since this ensures that the novel therapeutic peptide compounds described herein will not only kill the bacteria, but will also neutralize the LPS endotoxin released by the bacteria which plays such an important role in the rapid progression of sepsis.
(§3) BCC01-5RMP (SEQ ID NO:23), BCC002-5RMP (SEQ ID NO:21), and BCC003-5RMP (SEQ ID NO:22) were tested for their ability to bind lipopolysaccharide (LPS) using the limulus amebocyte lysate method (LAL). […] There was no statistical difference in their ability to bind LPS using the LAL technique. The ability of the peptides to neutralize LPS was assessed by determining their ability to attenuate the release of tumor necrosis factor-alpha (TNF-α) from LPS-stimulated RAW264.7 cells (a mouse macrophage cell line). […] No significant differences were observed between the three peptides to neutralize LPS as measured by cytokine release. Peptides based on sequence 120-146 (SEQ ID NOS:28-31) also bind and neutralize Pseudomonas LPS.

[1] = test system: release of TNF-α from LPS-stimulated RAW264.7 cells; experiment: LPS neutralization: TNF-α release from LPS-stimulated RAW264.7 cells; type: cell-based, mouse
Description: as §2, §3

[2] = test system: mouse corneal epithelium abrasion; experiment: In vivo model of corneal wound healing; conditions: HB-EGF 250 ng/ml at 0 and 16 hours
Description: (§4) The mouse corneal epithelium was removed using the AlgerBrush II (The Alger Company, Inc., Lago Vista, Tex.), and corneal abrasions were treated at 0 hours and 16 hours with peptide 95-122 (10^−5 M), or were left untreated in 0.9% sodium chloride (saline vehicle) Wound healing was monitored at 0, 16, and 24 hours using fluorescein staining and a camera-equipped inverted microscope. Data are represented as the percentage of wound closure at 16 hours and 24 hours and are expressed as means±SEM. The data are representative of at least 6 mice per group. *P<0.05 by unpaired t-test as compared to vehicle (0.9% sodium chloride) treated controls.
as §4, with “II,” for “II (The Alger Company, Inc., Lago Vista, Tex.),”, “0” for “0 hours”, “120-146WH (10^−8 M or 10^−6” for “95-122 (10^−5”, “vehicle control).” for “vehicle)”, “group. ***P<0.001,” for “group.”
(A) The epithelium of the mouse cornea was removed using the AlgerBrush II, and corneal abrasions were treated at 0 and 16 hours with HB-EGF (250 ng/ml), rCAP37 (250 ng/ml), or vehicle control (normal saline). Wound closure was monitored at 0, 16, 24, and 48 hours using fluorescein staining and a camera-equipped inverted microscope. Data are represented as the percentage of wound closure and are expressed as mean±SEM. The data are representative of at least 6 mice per group. The percentage of wound closure in response to treatment was compared to vehicle-treated controls by unpaired t-test, **P<0.01, *P<0.05. (B) Representative images of mouse corneal wounds are shown at 0, 16, 24, and 48 hours following treatment with vehicle, HB-EGF, and CAP37. Black dotted lines indicate the wound edge.
In vivo model of corneal wound healing: The in vivo model of wound healing was carried out using a disposable biopsy punch (2 mm, Miltex, York, Pa.) to demarcate the mouse cornea and a 0.5 mm burr using the AlgerBrush II (The Alger Company, Inc., Lago Vista, Tex.) to remove the corneal epithelium.
In vivo model of wound healing: Mice were anesthetized using ketamine (100 mg/kg; Bionichepharma, LLC., St. Lake Forrest, Ill.) and xylazine ([…]; Rompun; Bayer Corp., Shawnee Mission, Kans.), and the right cornea was wounded as follows. A disposable biopsy punch (2 mm, Miltex, York, Pa.) was used to demarcate the mouse cornea. The corneal epithelium was carefully removed within the 2 mm demarcated area with a 0.5 mm burr using the AlgerBrush II (The Alger Company, Inc., Lago Vista, Tex.). The corneal abrasions were treated at 0 and 16 hours with HB-EGF (250 ng/ml), rCAP37 (250 ng/ml), or vehicle control (0.9% sodium chloride, pH 5.5, Baxter, Deerfield, Ill.). Corneal abrasions were visualized using sterile fluorescein sodium ophthalmic strips USP (FLUORETS®, Chauvin Laboratory, Aubenas, France) dampened with sterile PBS. […] The areas of the open wound were quantitated using ImageJ software (US National Institutes of Health), and the results were reported as the percentage of wound closure.

[3] = test system: human corneal epithelial cell (HCEC); experiment: HCEC chemotaxis, modified Boyden chemotaxis chamber; type: cell-based; conditions: HB-EGF 50 ng/ml; positive control
Description: The effect of buffer control (0.1% BSA in Gey's buffer), heparin binding-epidermal growth factor (HB-EGF, 50 ng/ml), recombinant CAP37 (rCAP37, 250 ng/ml), 120-146QH (10^−12M, 10^−10 M, 10^−8 M, 10^−6M, and 10^−4M,) and 120-146QR (10^−10M, 10^−8M, 10^−6M, and 10^−4M) on HCEC chemotaxis was determined by the modified Boyden chemotaxis chamber method. HCEC chemotaxis was measured in response to HB-EGF, rCAP37, and peptides 120-146QH (SEQ ID NO:29) and 120-146QR (SEQ ID NO:28) after incubation for 3 hours at 37° C. Chemotaxis is expressed as a percent migration. The buffer control (no chemoattractant) is arbitrarily assigned the value of 100% migration. Data are expressed as means±SEM and are calculated from 6 observations for each test point. **P<0.01 by Wilcoxon signed-rank test as compared to controls.
Chemotaxis: Chemotaxis assays were performed using the modified Boyden chemotaxis chamber assay. Peptide 120-146QH was used at 10^−4 M, 10^−6 M, 10^−8 M, 10^−10 M, and 10^−12 M, and peptide 120-146QR was used at 10^−4 M, 10^−6 M, 10^−8M, and 10^−10M.

HCEC monolayers = experiment: In vitro scratch assay of HCEC monolayers; type: cell-based, human; conditions: HB-EGF 250 ng/ml
Description: (A) HCECs were grown to confluency and scratched using a 10 μl pipette tip. Scratched HCEC monolayers were treated with HB-EGF (250 ng/ml) or rCAP37 (25-2000 ng/ml), or were left untreated in basal Keratinocyte Serum Free Medium (KSFM). Wound closure was monitored at 0, 18, 24, and 48 hours utilizing a camera-equipped inverted microscope. The histogram represents data acquired at 48 hours, and the values are the mean±SEM of the percentage of wound closure. The data are representative of at least 4 independent experiments. The percentage of wound closure in treated monolayers was compared to untreated controls by one-way analysis of variance (ANOVA) followed by Dunnett's multiple comparison test, **P<0.01, *P<0.05. (B) Representative images of scratched monolayers treated with buffer control, HB-EGF, and rCAP37 (at 25, 100, and 250 ng/ml) are shown for each time point. Images were taken at 20× objective.
In vitro model of wound healing: An in vitro scratch assay was used in order to determine the ability of rCAP37 to facilitate corneal wound healing. Human corneal epithelial cells were cultured as described above until they reached a confluent monolayer. Each monolayer was scratched using a 10 μl pipette tip to create two perpendicular lines. Monolayers were treated with heparin binding-epidermal growth factor (HB-EGF, 250 ng/ml; Becton Dickinson), rCAP37 (25-2000 ng/ml), or basal KSFM (Gibco). Wound closure was monitored at 0, 18, 24, and 48 hours utilizing a camera-equipped inverted microscope (TE2000-E; Nikon, Melville, N.Y.). Time-lapse images of in vitro wound closure were obtained using a camera-equipped inverted microscope (TE2000-E; Nikon) from […]. HCEC monolayers were treated with HB-EGF, rCAP37, and basal KSFM as described above. The width of each scratch was quantitated using ImageJ software (US National Institutes of Health, Bethesda, Md.). Results are presented as the percentage of wound closure.

Molecule: CC[C@H](C)[C@H](NC(=O)[C@H](CC(C)C)NC(=O)[C@H](C)NC(=O)CNC(=O)CNC(=O)[C@H](CS)NC(=O)[C@H](Cc1ccccc1)NC(=O)[C@H](Cc1c[nH]cn1)NC(=O)[C@H](CCCNC(=N)N)NC(=O)CNC(=O)[C@H](CCC(N)=O)NC(=O)[C@H](CC(N)=O)NC(=O)[C@H](CCCNC(=N)N)NC(=O)[C@H](CCCNC(=N)N)NC(=O)[C@H](CCCNC(=N)N)NC(=O)[C@H](CCCNC(=N)N)NC(=O)CCOCCOCCNC(=O)CCOCCOCCN)C(=O)N[C@@H](Cc1c[nH]cn1)C(=O)N[C@@H](C)C(=O)N[C@@H](CCCNC(=N)N)C(=O)N[C@@H](Cc1ccccc1)C(=O)N[C@H](C(=O)N[C@@H](CCSC)C(=O)N[C@H](C(=O)N[C@@H](C)C(=O)N[C@@H](C)C(=O)N[C@@H](CO)C(=O)N[C@@H](CS)C(=O)N[C@@H](Cc1ccccc1)C(=O)N[C@@H](CCC(N)=O)C(=O)N[C@@H](CCCNC(=N)N)C(=O)O)[C@@H](C)O)C(C)C [BCC01-5RMP] (H-[PEG2][PEG2]RRRRNQGRHFCGGALIHARFVMTAASCFQR-OH; C-terminus assumed)
- in vitro bactericidal activity, in words (Escherichia coli): strong, but lesser activity
- in vitro bactericidal activity, in words (Salmonella typhimurium): strong, but lesser activity
- in vitro bactericidal activity, in words (Acinetobacter baumannii): most active
- in vitro bactericidal activity, in words (P. aeruginosa ATCC 27853): most active
- binding of Pseudomonas LPS (Pseudomonas LPS): bound Pseudomonas LPS
- neutralization of LPS: attenuation of TNF-α release [1]: attenuate the release of TNF-α

B1: HB-EGF: heparin binding-epidermal growth factor, used as the positive control (protein, UniProt Q99075 63-148, looked up)
Heparin-binding EGF-like …: DLQEADLDLLRVTLSSKPQALATPNKEEHGKRKKKGKGLGKKRDPCLRKYKDFCIHGECKYVKELRAPSCICHPGYHGERCHGLSL
- corneal wound closure vs buffer control, in words [2]: significantly higher compared to the buffer control
- migration of HCECs vs buffer control, in words [3]: significant increase in migration
- time to complete closure of scratch wounds (HCEC monolayers; CAP37 250 ng/ml): ≤ 24 h
- percentage wound closure (HCEC monolayers; positive control): ~88%
